# Data taken from PubChem BioAssay (NCI).
#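 A five-concentration, 48-hour dose response in 96-well plates underlies each endpoint, interpolated linearly between surrounding concentrations. GI50 = concentration required for 50% inhibition of growth. TGI is the concentration that stops growth completely.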 Where a SMILES comes first, the peptide text is derived from it. The star is where a group is joined. Fmoc = O=C(OCC1c2ccccc2-c2ccccc21)*; Boc = CC(C)(C)OC(=O)*
# Legend:
# Test in all cases: DTP human tumour cell line panel, 48 h
# [1] = test system: RXF 393 renal
# [2] = test system: HT29 colon
# [3] = test system: PC-3 prostate
# [4] = test system: NCI-H522 lung
# [5] = test system: OVCAR-5 ovarian
# [6] = test system: NCI-H460 lung
# [7] = test system: SK-MEL-2 melanoma
# [8] = test system: RPMI-8226 leukemia
# [9] = test system: SF-295 CNS
# [10] = test system: EKVX NSCLC
Compound,TGI [1] [µM],TGI [2] [µM],TGI [3] [µM],TGI [4] [µM],TGI [5] [µM],TGI [6] [µM],TGI [7] [µM],TGI [8] [µM],TGI [9] [µM],TGI [10] [µM],GI50 [3] [µM],GI50 [4] [µM],GI50 [9] [µM],GI50 [5] [µM],GI50 [6] [µM],GI50 [7] [µM],GI50 [10] [µM],GI50 [8] [µM]
COc1ccc(/C=C2\N=C(c3ccccc3)N(N=C3NC(=O)CC(=O)N3)C2=O)cc1,> 100,> 100,> 100,> 100,> 100,> 100,> 100,> 100,–,–,–,–,–,–,–,–,–,–
Nc1[nH]c(=S)nc2snnc12,> 100,> 100,> 100,> 100,> 100,> 100,> 100,> 100,> 100,–,–,–,–,–,–,–,–,–
N#CCCC1(CCC#N)CCCCCCCCC(CCC#N)(CCC#N)C(=O)C1=O,–,> 100,> 100,88.2,> 100,> 100,> 100,–,> 100,> 100,–,–,–,–,–,–,–,–
Cn1c2ccccc2c2c(=O)[nH]c(=O)[nH]c21,> 100,> 100,–,> 100,> 100,–,> 100,> 100,> 100,> 100,–,–,–,–,–,–,–,–
COC(=O)c1ccc(C)cc1/C=C1\Cc2ccc(C)cc2C1=O,31.9,40.9,> 100,45,42.3,> 100,–,39.6,41.1,88.4,–,–,–,–,–,–,–,–
CC(=O)OC(CCC1(C)OC1COc1ccc(CCNC(=O)c2ccccc2)cc1)C(C)(C)OC(C)=O (configuration not stated),43.8,44,–,> 100,> 100,36.7,60.4,> 100,> 100,–,–,–,–,–,–,–,–,–
COc1ccc(/C=c2\sc3n(c2=O)C(N)=C(C#N)C(c2ccc(OC)cc2)C=3c2nc3ccccc3[nH]2)cc1 (configuration not stated),–,–,–,> 100,67.5,40.9,61.5,> 100,–,56.2,–,–,–,–,–,–,–,–
COC(=O)C1CCC(=O)N1C(c1ccc(OC)cc1)c1ccc(OC)cc1 (configuration not stated),–,> 100,> 100,> 100,> 100,> 100,> 100,> 100,> 100,> 100,–,–,–,–,–,–,–,–
CSCCCNC(=O)c1csc(-c2csc(C(CNC(=O)OC(C)(C)C)CNC(=O)OC(C)(C)C)n2)n1,> 100,–,> 100,94.5,> 100,> 100,73.7,41.7,> 100,> 100,–,–,–,–,–,–,–,–
Cc1cc(C)c2c(n1)S(=O)(=O)N(CCCN1CCN(c3cccc(C(F)(F)F)c3)CC1)c1c-2nn(C)c1C,> 100,52,> 100,> 100,> 100,> 100,> 100,–,> 100,> 100,–,–,–,–,–,–,–,–
CN1C(=O)[C@@H]2[C@@H]3c4ccccc4N(S(=O)(=O)C(F)(F)F)[C@@H]3c3[nH]c4ccccc4c3[C@@H]2C1=O,> 100,> 100,> 100,–,> 100,> 100,> 100,> 100,> 100,> 100,–,–,–,–,–,–,–,–
CCOC(=O)C1OC(C2(C)OC3(OC4(C=CC3O)OC(C(C)C(=O)C(C)C(O)C(C)CC(C)c3c(Cl)cc(C)c(O)c3C(=O)O)C(C)CC4C)C(C)C2OC)CC1O (configuration not stated),–,3.57,17.3,0.434,21,0.714,1.13,> 14.7,3.89,5.02,–,–,–,–,–,–,–,–
CC(C)(C)OC(=O)NCCCCC(NC(=O)OCC1c2ccccc2-c2ccccc21)C(=O)N1CCCC1C(=O)NCC(N)=O (stereo not drawn) (Fmoc-Lys(Boc)-Pro-Gly-NH2; configuration not given here),> 100,> 100,> 100,–,> 100,37.9,> 100,> 100,> 100,> 100,–,–,–,–,–,–,–,–
CCCCCCCCCCCCCC[n+]1ccc2c(C)c3c(c(C)c2c1)c1cc(O)ccc1n3CC,–,–,1.33,2,1.85,1.59,0.774,1.99,1.08,2.56,0.356,0.42,0.289,0.497,0.347,0.256,0.554,0.31
COC(=O)/C=C/c1ccc2c(c1)CC1(C2)Cc2cc3c(cc2C1=O)CCC3 (configuration not stated),84.9,–,> 100,> 100,–,> 100,> 100,> 100,> 100,> 100,–,–,–,–,–,–,–,–
Cc1cccnc1/N=C/c1c(O)n(C)c(=O)[nH]c1=O,–,> 100,> 100,> 100,> 100,> 100,> 100,–,> 100,> 100,–,–,–,–,–,–,–,–
Nc1nc(N)c2ncn(Cc3ccccc3CCl)c2n1,–,> 100,> 100,> 100,> 100,> 100,> 100,> 100,> 100,> 100,–,–,–,–,–,–,–,–
O=c1[nH]c(Nc2cc(Cl)cc(Cl)c2)nc2nc[nH]c12,> 75,> 75,> 75,–,> 75,> 75,> 75,> 75,> 75,> 75,–,–,–,–,–,–,–,–
CC(=O)OCC1OC(SC2OC(COC(C)=O)C(OC(C)=O)C(OC(C)=O)C2OC(C)=O)C(OC(C)=O)C(OC(C)=O)C1OC(C)=O (configuration not stated),> 100,> 100,–,–,> 100,> 100,–,> 100,> 100,> 100,–,–,–,–,–,–,–,–
CC(C)[Si](OC1=CCC[C@H]2NC(=O)[C@@H](Cc3ccccc3)[C@@]12C)(C(C)C)C(C)C,15,12.1,12.3,17.4,21.3,12.4,29.7,–,17.2,15,–,–,–,–,–,–,–,–
Fc1ccc2nc3n(c2c1)C(c1c(Cl)cccc1Cl)SC3 (configuration not stated),> 100,> 100,> 100,> 100,> 100,> 100,> 100,> 100,> 100,–,–,–,–,–,–,–,–,–
CCOC(=O)C1=C(C)N(c2ccc(C)cc2)C2=C(C(=O)N(c3ccccc3)C2c2ccccc2)C1c1ccccc1 (configuration not stated),> 25,> 25,–,–,–,> 25,> 25,> 25,> 25,> 25,–,–,–,–,–,–,–,–
